In BindingDB's records for PubMed 33228976 (Massachusetts College of Pharmacy and Health Sciences …, 2021):

Biological target: GTPase KRas (Homo sapiens, UniProt P01116)
Test: Antiproliferative activity against human COLO 320DM cells harboring wild type KRAS assessed as reduction in cell viability incubated for 24 hrs in presence of MVA

GTPase KRas, sequence (P01116 whole entry): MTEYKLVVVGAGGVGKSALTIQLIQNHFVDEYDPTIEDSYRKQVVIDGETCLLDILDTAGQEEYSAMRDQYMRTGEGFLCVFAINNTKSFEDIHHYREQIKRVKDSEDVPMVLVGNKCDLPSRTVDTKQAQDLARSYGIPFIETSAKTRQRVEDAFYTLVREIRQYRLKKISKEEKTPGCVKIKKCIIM

## CCCC[C@@H](C)C=C(C)C=C(C)C(=O)NC1=C[C@@](O)(C=CC=CC=CC(=O)NC2C(=O)CCC2=O)[C@@H]2O[C@@H]2C1=O [(R)-2,4,6-Trimethyl-deca-2,4-dienoic acid {(1S,5S,6R)-5-hydroxy-5-[(1E,3E,5E)-6-(2-hydroxy-5-oxo-cyclopent-1-enylcarbamoyl)-hexa-1,3,5-trienyl]-2-oxo-7-oxa-bicyclo[4.1.0]hept-3-en-3-yl}-amide]
  IC50: 3.58 µM
